Measurements reported in ChEMBL document CHEMBL1145975, “Tricyclic indole-2-carboxylic acids: highly in vivo active and selective antagonists for the glycine binding site of the NMDA receptor” (J Med Chem, 2003).

Key:
Rattus norvegicus [1] = species on record: Rattus norvegicus; assay: Area under the concentration-time curve from time zero to infinity in whole brain homogenates was determined; format: ADME, organism-based; details: in vivo
Rattus norvegicus [2] = assay: Percent of reduction of cortical infarct volume at dose of 20 mg/kg bolus +20 mg/kg/hr continuous infusion was determined in normotensive rats; format: functional
[3] = target: T1, Glutamate receptor ionotropic, NMDA 1 (Rattus norvegicus, UniProt P35439); assay: Affinity for glycine site of N-methyl-D-aspartate glutamate receptor determined by displacement of tritium labeled selective glycine antagonist [3H]- SM-18400; format: functional
Mus musculus [4] = assay: Number of mice protected from tonic seizures to that of number tested was determined when compound (3 mg/kg) was administered intravenously to 10 mice; format: functional
Mus musculus [5] = species on record: Mus musculus; assay: Effective dose of compound required to inhibit N-methyl D-aspartate induced seizures in mice; format: functional
[6] = Binding affinity for glutamate site of N-methyl-D-aspartate glutamate receptor determined by displacement of [3H]- glutamate in rat cortical membranes; format: cell membranes, Membrane
[7] = target: T1, Glutamate receptor ionotropic, NMDA 1; assay: Binding affinity for glycine site of N-methyl-D-aspartate glutamate receptor determined by displacement of [3H]- DCKA (5,7-dichlorokynurenic acid) in rat cortical membranes; format: cell membranes, Membrane
[8] = target: Glutamate receptor ionotropic, AMPA (Rattus norvegicus, UniProt P19490+P19491+P19492+P19493); assay: Binding affinity for non-NMDA receptor determined by displacement of [3H]- AMPA (2-amino-(3-(3-hydroxy-5-methylisoxazole-4-yl)propanoic acid)) in rat cortical membranes; format: cell membranes, Membrane
[9] = target: T1, Glutamate receptor ionotropic, NMDA 1; assay: Binding affinity for glycine site of N-methyl-D-aspartate glutamate receptor determined by displacement of [3H]- glycine in rat cortical membranes; format: cell membranes, Membrane
[10] = target: Glutamate receptor ionotropic, kainate; assay: Binding affinity for non-NMDA receptor determined by displacement of [3H]- KA (kainic acid) in rat cortical membranes; format: cell membranes, Membrane

AUC (Rattus norvegicus [1])	IC50 [3]	Ki [6]	Ki [7]	Ki [8]	Ki [9]	Ki [10]	SMILES	Cortical infarct volume (Rattus norvegicus [2])	No. of protected/tested (Mus musculus [4])	ED50 (Mus musculus [5])
	18 nM						NCc1ccc(NC(=O)C[C@@H]2CCc3cc(Cl)cc4[nH]c(C(=O)O)c2c34)cc1		3	
10 µg·min/g	2.7 nM	> 10000 nM	1 nM	> 10000 nM	11 nM	> 10000 nM	C[C@@H](C(=O)O)c1cc(CN)ccc1NC(=O)C[C@@H]1CCc2cc(Cl)cc3[nH]c(C(=O)O)c1c23	84%	5	2.3 mg/kg
	29 nM						C[C@H](C(=O)O)c1cc(CN)ccc1NC(=O)C[C@@H]1CCc2cc(Cl)cc3[nH]c(C(=O)O)c1c23		4	3.7 mg/kg
	1.5 nM						NCc1ccc(NC(=O)C[C@@H]2CCc3cc(Cl)cc4[nH]c(C(=O)O)c2c34)c(CC(=O)O)c1	30%	5	1.8 mg/kg
	19 nM						O=C(C[C@@H]1CCc2cc(Cl)cc3[nH]c(C(=O)O)c1c23)Nc1ccccc1		3	

The remaining lines, values behind:

SMILES	AUC (Rattus norvegicus [1])	IC50 [3]	Ki [6]	Ki [7]	Ki [8]	Ki [9]	Ki [10]	Cortical infarct volume (Rattus norvegicus [2])	No. of protected/tested (Mus musculus [4])	ED50 (Mus musculus [5])
NCc1ccc(NC(=O)C[C@@H]2CCc3cc(Cl)cc4[nH]c(=O)c(=O)n2c34)c(OCC(=O)O)c1	3.3 µg·min/g	1 nM						50%	10	0.41 mg/kg
O=C(O)Cc1ccccc1NC(=O)C[C@@H]1CCc2cc(Cl)cc3[nH]c(C(=O)O)c1c23		7.6 nM							3	
NCc1ccc(NC(=O)C[C@@H]2CCc3cc(Cl)cc4[nH]c(C(=O)O)c2c34)c(OCC(=O)O)c1 (stereo in doubt; 3b)		33 nM								
NCc1ccc(NC(=O)C[C@@H]2CCc3cc(Cl)cc4[nH]c(C(=O)O)c2c34)c(OCC(=O)O)c1 (stereo in doubt; 3a)		1.2 nM							2	5 mg/kg
